Measurements published in the CheMixHub ionic liquid set.

Assay: xn = mol fraction of the nth substance listed

CCCC[N+](C)(CCCC)CCCC.[Cl-] + OC[C@H]1O[C@@](CO)(O[C@H]2O[C@H](CO)[C@@H](O)[C@H](O)[C@H]2O)[C@@H](O)[C@@H]1O + O
viscosity [mPa·s], 101.3 kPa
Conditions	293.15 K	298.15 K	303.15 K	308.15 K	313.15 K
x2 = 0, x1 = 0.0003423	1.011	0.904	0.806	0.729	0.662
x2 = 0, x1 = 0.0007203	–	–	–	–	0.672
x2 = 0, x1 = 0.001062	1.036	0.931	0.826	0.747	0.686
x2 = 0, x1 = 0.00144	–	–	–	–	0.695
x2 = 0.0003599, x1 = 0.0003421	1.027	0.917	0.817	0.737	0.668
x2 = 0.0003616, x1 = 0.00072	1.041	0.928	0.824	0.746	0.68
x2 = 0.0003631, x1 = 0.001062	1.057	0.948	0.839	0.758	0.695
x2 = 0.0003647, x1 = 0.001439	1.069	0.962	0.857	0.773	0.706
x2 = 0.0007214, x1 = 0.000342	1.052	0.937	0.83	0.747	0.677
x2 = 0.0007247, x1 = 0.0007198	1.069	0.948	0.839	0.759	0.692
x2 = 0.0007277, x1 = 0.001061	1.084	0.968	0.855	0.773	0.709
x2 = 0.000731, x1 = 0.001438	1.096	0.984	0.871	0.786	0.718
x2 = 0.001083, x1 = 0.0003419	1.071	0.952	0.845	0.761	0.689
x2 = 0.001088, x1 = 0.0007195	1.088	0.965	0.854	0.772	0.701
x2 = 0.001092, x1 = 0.001061	1.105	0.994	0.872	0.785	0.718
x2 = 0.001097, x1 = 0.001438	1.118	1.007	0.89	0.8	0.729
x2 = 0.001444, x1 = 0.0003418	1.093	0.971	0.86	0.774	0.701
x2 = 0.00145, x1 = 0.0007192	1.11	0.984	0.87	0.786	0.712
x2 = 0.001456, x1 = 0.001061	1.126	1.009	0.889	0.799	0.73
x2 = 0.001463, x1 = 0.001437	1.141	1.025	0.908	0.816	0.741
x2 = 0.001804, x1 = 0.0003416	1.115	0.987	0.875	0.788	0.713
x2 = 0.001813, x1 = 0.000719	1.134	1.001	0.885	0.798	0.726
x2 = 0.00182, x1 = 0.00106	1.153	1.025	0.905	0.814	0.744
x2 = 0.001828, x1 = 0.001437	1.166	1.042	0.925	0.829	0.76
x2 = 0.002163, x1 = 0.0003415	1.137	1.006	0.89	0.802	0.725
x2 = 0.002173, x1 = 0.0007187	1.155	1.02	0.901	0.811	0.734
x2 = 0.002176, x1 = 0.00106	1.171	1.044	0.922	0.828	0.754
x2 = 0.002192, x1 = 0.001436	1.182	1.059	0.941	0.841	0.762
x2 = 0.002532, x1 = 0.0003414	1.153	1.027	0.904	0.806	0.734
x2 = 0.002546, x1 = 0.0007185	1.176	1.038	0.916	0.822	0.754
x2 = 0.00256, x1 = 0.001436	1.203	1.075	0.957	0.859	0.775
x2 = 0.002561, x1 = 0.001059	1.187	1.058	0.934	0.842	0.766

CCCC[N+](C)(CCCC)CCCC.[Cl-] + N[C@@H](Cc1ccccc1)C(=O)O + O
viscosity [mPa·s], 101.3 kPa
Conditions	293.15 K	298.15 K	303.15 K	308.15 K	313.15 K
x2 = 0, x1 = 0.00144	–	–	–	–	0.7
x2 = 0.0003636, x1 = 0.00072	0.99	0.89	0.76	0.67	–
x2 = 0.0003667, x1 = 0.001439	0.98	0.9	0.78	0.79	0.71
x2 = 0.000726, x1 = 0.0007198	1	0.9	0.77	0.68	–
x2 = 0.0007319, x1 = 0.001438	0.99	0.91	0.8	0.8	0.72
x2 = 0.00109, x1 = 0.0007195	1.02	0.92	0.78	0.69	–
x2 = 0.001099, x1 = 0.001438	1.01	0.92	0.81	0.81	0.74
x2 = 0.001452, x1 = 0.0007192	1.03	0.93	0.79	0.71	–
x2 = 0.001466, x1 = 0.001437	1.02	0.94	0.82	0.83	0.75
x2 = 0.001813, x1 = 0.000719	1.04	0.94	0.81	0.72	–
x2 = 0.001828, x1 = 0.001437	1.03	0.95	0.84	0.84	0.76
x2 = 0.002175, x1 = 0.0007187	1.06	0.96	0.82	0.73	–
x2 = 0.002194, x1 = 0.001436	1.05	0.96	0.85	0.85	0.78
x2 = 0.002538, x1 = 0.0007185	1.07	0.97	0.83	0.75	–
x2 = 0.002562, x1 = 0.001436	1.06	0.98	0.86	0.87	0.79

C[N+](C)(CCO)Cc1ccccc1.[Cl-] + CC(=O)CCC(=O)O
101.33 kPa, x1 = 0.3333
Conditions	viscosity [mPa·s]
293.15 K	2026
298.15 K	1235
303.15 K	785
308.15 K	518
313.15 K	353
318.15 K	248
323.15 K	179
328.15 K	133
333.15 K	101
338.15 K	78
343.15 K	61
348.15 K	49
353.15 K	40

Cn1cc[n+](CCC(=O)O)c1.[Cl-] + O
viscosity [mPa·s], 100 kPa
Conditions	x1 = 0.0009214	x1 = 0.001799	x1 = 0.003593	x1 = 0.005399	x1 = 0.00717	x1 = 0.008993
293.15 K	1.006	1.022	1.056	1.092	1.128	1.167
298.15 K	0.893	0.907	0.937	0.966	0.995	1.03
303.15 K	0.802	0.814	0.839	0.865	0.89	0.922
308.15 K	0.726	0.735	0.759	0.783	0.807	0.831
313.15 K	0.658	0.668	0.689	0.711	0.73	0.75

CCCO + CC[n+]1ccn(C)c1.N#C[S-]
101 kPa, x2 = 0
Conditions	viscosity [mPa·s]
283.15 K	2.78
293.15 K	2.18
303.15 K	1.72
313.15 K	1.36
323.15 K	1.11

CCCO + C[C@H](N)C(=O)[O-].C[N+](C)(C)CCO
100 kPa, x2 = 0
Conditions	viscosity [mPa·s]
288.12 K	2.19
289.34 K	2.13
290.54 K	2.07
291.73 K	2
292.91 K	1.95
294.09 K	1.89
295.27 K	1.84
296.45 K	1.78
297.63 K	1.73
298.8 K	1.68
299.98 K	1.63
301.16 K	1.58
302.33 K	1.52
303.51 K	1.48
304.68 K	1.43
305.86 K	1.38
307.04 K	1.34
308.21 K	1.29

CCCC[n+]1ccn(C)c1.N#C[N-]C#N + OCC(O)CO + O
viscosity [mPa·s], 101 kPa
Conditions	x2 = 0.00317, x3 = 0.9588	x2 = 0.005245, x3 = 0.8687	x2 = 0.006424, x3 = 0.955	x2 = 0.009764, x3 = 0.9511	x2 = 0.01072, x3 = 0.8605	x2 = 0.0132, x3 = 0.9472	x2 = 0.01645, x3 = 0.8519	x2 = 0.02243, x3 = 0.8428
313.15 K	1.38	1.68	1.46	1.53	1.72	1.59	1.78	1.81
333.15 K	1.25	1.33	1.29	1.34	1.37	1.39	1.41	1.43
353.15 K	1.03	1.15	1.03	1.07	1.17	1.08	1.22	1.34

O=S1(=O)CCCC1 + CCCC[N+]1(C)CCCC1.O=S(=O)([N-]S(=O)(=O)C(F)(F)F)C(F)(F)F
101.33 kPa, x2 = 0.5
Conditions	viscosity [mPa·s]
303.15 K	25.8
313.15 K	18.6
323.15 K	12.9
333.15 K	9.7
343.15 K	8
353.25 K	6.7
